{"source": "patent US20240109903A1", "about": "“SUBSTITUTED HETEROCYCLES FOR TREATING CANCER” (Northwestern University, priority 2022, published 2024)", "format_in_all_cases": "cell-based", "key": {"[1]": {"system": "HL-60(TB)", "test": "NCI 60 five-dose screen HL-60(TB)", "details": "Homo sapiens; for CC50: read-out: LC50 (the source's name) (converted)"}, "[2]": {"system": "OVCAR-4", "test": "NCI 60 five-dose screen OVCAR-4", "details": "Homo sapiens; for CC50: read-out: LC50 (the source's name) (converted)"}, "[3]": {"system": "A549/ATCC", "test": "NCI 60 five-dose screen A549/ATCC", "details": "Homo sapiens; for CC50: read-out: LC50 (the source's name) (converted)"}, "[4]": {"system": "HCT-15", "test": "NCI 60 five-dose screen HCT-15", "details": "Homo sapiens; for CC50: read-out: LC50 (the source's name) (converted)"}, "[5]": {"system": "SNB-75", "test": "NCI 60 five-dose screen SNB-75", "details": "Homo sapiens; for CC50: read-out: LC50 (the source's name) (converted)"}, "[6]": {"system": "SN12C", "test": "NCI 60 five-dose screen SN12C", "details": "Homo sapiens; for CC50: read-out: LC50 (the source's name) (converted)"}, "[7]": {"system": "T-47D", "test": "NCI 60 five-dose screen T-47D", "details": "Homo sapiens, T47D; for CC50: read-out: LC50 (the source's name)"}, "[8]": {"system": "HOP-62", "test": "NCI 60 five-dose screen HOP-62", "details": "Homo sapiens; for CC50: read-out: LC50 (the source's name) (converted)"}, "[9]": {"system": "SF-539", "test": "NCI 60 five-dose screen SF-539", "details": "Homo sapiens; for CC50: read-out: LC50 (the source's name) (converted)"}, "[10]": {"system": "SF-268", "test": "NCI 60 five-dose screen SF-268", "details": "Homo sapiens; for CC50: read-out: LC50 (the source's name) (converted)"}, "[11]": {"system": "NCI-H460", "test": "NCI 60 five-dose screen NCI-H460", "details": "Homo sapiens; for CC50: read-out: LC50 (the source's name) (converted)"}, "[12]": {"system": "OVCAR-5", "test": "NCI 60 five-dose screen OVCAR-5", "details": "Homo sapiens; for CC50: read-out: LC50 (the source's name) (converted)"}, "[13]": {"system": "SK-MEL-2", "test": "NCI 60 five-dose screen SK-MEL-2", "details": "Homo sapiens; for CC50: read-out: LC50 (the source's name) (converted)"}}, "note": "Where two headings read alike, the source gives them in different places."}
{"smiles": "COc1cc(Cn2c(C(F)(F)F)cc3c(Cl)ncnc32)ccn1", "note": "[NUCC-0226694]", "values": [{"measurement": "GI50", "setting": "[1]", "value": 2.14, "unit": "µM"}, {"measurement": "IC50", "setting": "[1]", "value": 3.39, "unit": "µM"}, {"measurement": "IC (TGI)", "setting": "[1]", "value": 7.24, "unit": "µM"}, {"measurement": "CC50", "setting": "[1]", "value": "≥ 100", "unit": "µM"}, {"measurement": "GI50", "setting": "[2]", "value": 12, "unit": "µM"}, {"measurement": "IC50", "setting": "[2]", "value": 22.9, "unit": "µM"}, {"measurement": "IC (TGI)", "setting": "[2]", "value": 26.9, "unit": "µM"}, {"measurement": "CC50", "setting": "[2]", "value": 58.9, "unit": "µM"}, {"measurement": "GI50", "setting": "[3]", "value": 16.6, "unit": "µM"}, {"measurement": "IC50", "setting": "[3]", "value": 27.5, "unit": "µM"}, {"measurement": "IC (TGI)", "setting": "[3]", "value": 38, "unit": "µM"}, {"measurement": "CC50", "setting": "[3]", "value": 89.1, "unit": "µM"}, {"measurement": "GI50", "setting": "[4]", "value": 3.09, "unit": "µM"}, {"measurement": "IC50", "setting": "[4]", "value": 3.8, "unit": "µM"}, {"measurement": "IC (TGI)", "setting": "[4]", "value": 10, "unit": "µM"}, {"measurement": "CC50", "setting": "[4]", "value": 53.7, "unit": "µM"}, {"measurement": "GI50", "setting": "[5]", "value": 1.78, "unit": "µM"}, {"measurement": "IC50", "setting": "[5]", "value": 6.61, "unit": "µM"}, {"measurement": "IC (TGI)", "setting": "[5]", "value": 7.24, "unit": "µM"}, {"measurement": "CC50", "setting": "[5]", "value": 27.5, "unit": "µM"}, {"measurement": "GI50", "setting": "[6]", "value": 9.12, "unit": "µM"}, {"measurement": "IC50", "setting": "[6]", "value": 15.5, "unit": "µM"}, {"measurement": "IC (TGI)", "setting": "[6]", "value": 21.4, "unit": "µM"}, {"measurement": "CC50", "setting": "[6]", "value": 46.8, "unit": "µM"}, {"measurement": "GI50", "setting": "[7]", "value": 13.5, "unit": "µM"}, {"measurement": "IC50", "setting": "[7]", "value": 38, "unit": "µM"}, {"measurement": "IC (TGI)", "setting": "[7]", "value": 61.7, "unit": "µM"}, {"measurement": "CC50", "setting": "[7]", "value": "≥ 100", "unit": "µM"}, {"measurement": "GI50", "setting": "[8]", "value": 14.5, "unit": "µM"}, {"measurement": "IC50", "setting": "[8]", "value": 27.5, "unit": "µM"}, {"measurement": "IC (TGI)", "setting": "[8]", "value": 29.5, "unit": "µM"}, {"measurement": "CC50", "setting": "[8]", "value": 61.7, "unit": "µM"}, {"measurement": "GI50", "setting": "[9]", "value": 13.8, "unit": "µM"}, {"measurement": "IC50", "setting": "[9]", "value": 24.5, "unit": "µM"}, {"measurement": "IC (TGI)", "setting": "[9]", "value": 26.9, "unit": "µM"}, {"measurement": "CC50", "setting": "[9]", "value": 51.3, "unit": "µM"}, {"measurement": "GI50", "setting": "[10]", "value": 2.45, "unit": "µM"}, {"measurement": "IC50", "setting": "[10]", "value": 4.57, "unit": "µM"}, {"measurement": "IC (TGI)", "setting": "[10]", "value": 9.33, "unit": "µM"}, {"measurement": "CC50", "setting": "[10]", "value": 41.7, "unit": "µM"}, {"measurement": "GI50", "setting": "[11]", "value": 2.69, "unit": "µM"}, {"measurement": "IC50", "setting": "[11]", "value": 3.31, "unit": "µM"}, {"measurement": "IC (TGI)", "setting": "[11]", "value": 8.13, "unit": "µM"}, {"measurement": "CC50", "setting": "[11]", "value": 34.7, "unit": "µM"}, {"measurement": "GI50", "setting": "[12]", "value": 15.8, "unit": "µM"}, {"measurement": "IC50", "setting": "[12]", "value": 29.5, "unit": "µM"}, {"measurement": "IC (TGI)", "setting": "[12]", "value": 32.4, "unit": "µM"}, {"measurement": "CC50", "setting": "[12]", "value": 66.1, "unit": "µM"}, {"measurement": "GI50", "setting": "[13]", "value": 10, "unit": "µM"}, {"measurement": "IC50", "setting": "[13]", "value": 21.9, "unit": "µM"}, {"measurement": "IC (TGI)", "setting": "[13]", "value": 22.4, "unit": "µM"}, {"measurement": "CC50", "setting": "[13]", "value": 51.3, "unit": "µM"}]}
{"smiles": "FC(F)(F)CN1CCN(CCn2c(C(F)(F)F)cc3c(Cl)ncnc32)CC1", "note": "[NUCC-0226683]", "values": [{"measurement": "GI50", "setting": "[1]; five-dose", "value": 2.75, "unit": "µM"}, {"measurement": "IC50", "setting": "[1]; five-dose", "value": 5.75, "unit": "µM"}, {"measurement": "IC (TGI)", "setting": "[1]; five-dose", "value": 8.13, "unit": "µM"}, {"measurement": "CC50", "setting": "[1]; five-dose", "value": "≥ 100", "unit": "µM"}, {"measurement": "GI50", "setting": "[2]; five-dose", "value": 26.9, "unit": "µM"}, {"measurement": "IC50", "setting": "[2]; five-dose", "value": 89.1, "unit": "µM"}, {"measurement": "IC (TGI)", "setting": "[2]; five-dose", "value": 100, "unit": "µM"}, {"measurement": "CC50", "setting": "[2]; five-dose", "value": "≥ 100", "unit": "µM"}, {"measurement": "GI50", "setting": "[3]; five-dose", "value": 52.5, "unit": "µM"}, {"measurement": "IC50", "setting": "[3]; five-dose", "value": 89.1, "unit": "µM"}, {"measurement": "IC (TGI)", "setting": "[3]; five-dose", "value": 100, "unit": "µM"}, {"measurement": "CC50", "setting": "[3]; five-dose", "value": "≥ 100", "unit": "µM"}, {"measurement": "GI50", "setting": "[4]; five-dose", "value": 2.57, "unit": "µM"}, {"measurement": "IC50", "setting": "[4]; five-dose", "value": 3.55, "unit": "µM"}, {"measurement": "IC (TGI)", "setting": "[4]; five-dose", "value": 7.41, "unit": "µM"}, {"measurement": "CC50", "setting": "[4]; five-dose", "value": 50.1, "unit": "µM"}, {"measurement": "GI50", "setting": "[5]; five-dose", "value": 3.09, "unit": "µM"}, {"measurement": "IC50", "setting": "[5]; five-dose", "value": 14.8, "unit": "µM"}, {"measurement": "IC (TGI)", "setting": "[5]; five-dose", "value": 14.1, "unit": "µM"}, {"measurement": "CC50", "setting": "[5]; five-dose", "value": 38.9, "unit": "µM"}, {"measurement": "GI50", "setting": "[6]; five-dose", "value": 7.76, "unit": "µM"}, {"measurement": "IC50", "setting": "[6]; five-dose", "value": 13.8, "unit": "µM"}, {"measurement": "IC (TGI)", "setting": "[6]; five-dose", "value": 22.9, "unit": "µM"}, {"measurement": "CC50", "setting": "[6]; five-dose", "value": 60.3, "unit": "µM"}, {"measurement": "GI50", "setting": "[7]; five-dose", "value": 17.4, "unit": "µM"}, {"measurement": "IC50", "setting": "[7]; five-dose", "value": 49, "unit": "µM"}, {"measurement": "IC (TGI)", "setting": "[7]; five-dose", "value": 63.1, "unit": "µM"}, {"measurement": "CC50", "setting": "[7]; five-dose", "value": "≥ 100", "unit": "µM"}, {"measurement": "GI50", "setting": "[8]; five-dose", "value": 13.8, "unit": "µM"}, {"measurement": "IC50", "setting": "[8]; five-dose", "value": 28.8, "unit": "µM"}, {"measurement": "IC (TGI)", "setting": "[8]; five-dose", "value": 32.4, "unit": "µM"}, {"measurement": "CC50", "setting": "[8]; five-dose", "value": 75.9, "unit": "µM"}, {"measurement": "GI50", "setting": "[9]; five-dose", "value": 12.6, "unit": "µM"}, {"measurement": "IC50", "setting": "[9]; five-dose", "value": 22.9, "unit": "µM"}, {"measurement": "IC (TGI)", "setting": "[9]; five-dose", "value": 28.8, "unit": "µM"}, {"measurement": "CC50", "setting": "[9]; five-dose", "value": 66.1, "unit": "µM"}, {"measurement": "GI50", "setting": "[10]; five-dose", "value": 5.25, "unit": "µM"}, {"measurement": "IC50", "setting": "[10]; five-dose", "value": 11.5, "unit": "µM"}, {"measurement": "IC (TGI)", "setting": "[10]; five-dose", "value": 21.4, "unit": "µM"}, {"measurement": "CC50", "setting": "[10]; five-dose", "value": 70.8, "unit": "µM"}, {"measurement": "GI50", "setting": "[11]; five-dose", "value": 2.69, "unit": "µM"}, {"measurement": "IC50", "setting": "[11]; five-dose", "value": 3.63, "unit": "µM"}, {"measurement": "IC (TGI)", "setting": "[11]; five-dose", "value": 6.76, "unit": "µM"}, {"measurement": "CC50", "setting": "[11]; five-dose", "value": 30.9, "unit": "µM"}, {"measurement": "GI50", "setting": "[12]; five-dose", "value": 100, "unit": "µM"}, {"measurement": "IC50", "setting": "[12]; five-dose", "value": 100, "unit": "µM"}, {"measurement": "IC (TGI)", "setting": "[12]; five-dose", "value": 100, "unit": "µM"}, {"measurement": "CC50", "setting": "[12]; five-dose", "value": "≥ 100", "unit": "µM"}, {"measurement": "GI50", "setting": "[13]; five-dose", "value": 15.8, "unit": "µM"}, {"measurement": "IC50", "setting": "[13]; five-dose", "value": 31.6, "unit": "µM"}, {"measurement": "IC (TGI)", "setting": "[13]; five-dose", "value": 30.9, "unit": "µM"}, {"measurement": "CC50", "setting": "[13]; five-dose", "value": 60.3, "unit": "µM"}]}
